Among the data in ChEMBL document CHEMBL1130226, “2,4-Diaminothieno[2,3-d]pyrimidine lipophilic antifolates as inhibitors of Pneumocystis carinii and Toxoplasma gondii dihydrofolate reductase” (J Med Chem, 1997) are IC50 and Selectivity ratio values, retold here.

The target in assay [1] is T1, Dihydrofolate reductase (Pneumocystis carinii, UniProt P16184).
T1 sequence (P16184 whole entry): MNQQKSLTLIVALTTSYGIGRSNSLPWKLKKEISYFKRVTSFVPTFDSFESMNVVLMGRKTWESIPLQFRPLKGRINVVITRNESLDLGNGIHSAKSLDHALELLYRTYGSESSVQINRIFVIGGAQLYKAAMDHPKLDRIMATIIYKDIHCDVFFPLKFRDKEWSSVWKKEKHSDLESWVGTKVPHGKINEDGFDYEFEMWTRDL
Description: Inhibition of Pneumocystis carinii Dihydrofolate Reductase

Assay [2] is described as follows: Selectivity ratio of IC50 (rat liver)/IC50 (Pneumocystis carinii).
In assay [3] the target is T2, Bifunctional dihydrofolate reductase-thymidylate synthase (Toxoplasma gondii, UniProt Q07422).
T2 sequence (Q07422 whole entry): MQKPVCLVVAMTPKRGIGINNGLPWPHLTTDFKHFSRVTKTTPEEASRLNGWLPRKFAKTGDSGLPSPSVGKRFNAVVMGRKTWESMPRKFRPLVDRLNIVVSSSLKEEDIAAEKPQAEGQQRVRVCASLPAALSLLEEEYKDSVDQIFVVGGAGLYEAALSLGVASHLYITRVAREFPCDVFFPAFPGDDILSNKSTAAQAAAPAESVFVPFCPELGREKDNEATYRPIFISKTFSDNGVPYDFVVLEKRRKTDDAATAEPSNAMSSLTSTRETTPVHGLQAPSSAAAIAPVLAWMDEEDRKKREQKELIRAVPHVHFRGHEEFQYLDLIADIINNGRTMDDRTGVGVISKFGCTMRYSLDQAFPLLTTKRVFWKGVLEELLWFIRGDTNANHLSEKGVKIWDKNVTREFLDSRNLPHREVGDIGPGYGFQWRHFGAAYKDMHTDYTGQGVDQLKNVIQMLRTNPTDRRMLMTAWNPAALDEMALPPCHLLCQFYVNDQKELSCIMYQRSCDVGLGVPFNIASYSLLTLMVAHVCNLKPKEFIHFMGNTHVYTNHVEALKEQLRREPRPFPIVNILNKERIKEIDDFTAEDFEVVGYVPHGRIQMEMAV
Description: Inhibition of Toxoplasma gondii Dihydrofolate Reductase

A short description of assay [4]: Selectivity ratio of IC50 (rat liver)/IC50 (Toxoplasma gondii.
Assay [5] has as its target T3, Dihydrofolate reductase (Rattus norvegicus, UniProt Q920D2).
T3 sequence (Q920D2 whole entry): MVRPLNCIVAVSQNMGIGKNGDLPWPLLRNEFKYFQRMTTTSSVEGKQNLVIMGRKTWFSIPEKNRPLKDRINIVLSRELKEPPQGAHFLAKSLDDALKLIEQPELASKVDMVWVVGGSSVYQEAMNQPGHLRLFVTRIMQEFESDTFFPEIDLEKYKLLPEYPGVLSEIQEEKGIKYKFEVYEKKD
Description: Inhibition of rat liver Dihydrofolate Reductase

Structures are written as SMILES.

One may read the IC50 as the concentration that inhibits the measured activity by half. High values mean weaker potency in that assay, low ones greater potency in that assay. Turning to `COc1cc(Cc2cnc(N)nc2N)cc(OC)c1Br` [BRODIMOPRIM], the results for the IC50 (at Dihydrofolate reductase [1]; in assay [3]; against Dihydrofolate reductase [5]) were 0.031 µM, 0.017 µM and 0.015 µM, respectively. In addition, the Selectivity ratio came to 0.048 in assay [2] and 0.088 in assay [4].
Take `COc1cc(NCc2c(Br)sc3nc(N)nc(N)c23)cc(OC)c1OC`: the IC50 against Dihydrofolate reductase [1] was 13 µM; in assay [3], 34 µM; at Dihydrofolate reductase [5] it was 17 µM. For the same compound, the Selectivity ratio in assay [2] worked out at 1.2.
Consider `COc1ccc(OC)c(N(C)Cc2c(Br)sc3nc(N)nc(N)c23)c1`, for which the IC50 (on Dihydrofolate reductase [1]; in assay [3]; on Dihydrofolate reductase [5]) was over 10 µM in each case.
Regarding `Nc1nc(N)c2c(CNc3cc(Cl)c(-n4cccc4)c(Cl)c3)c(Br)sc2n1`, the IC50 is 7.5 µM against Dihydrofolate reductase [1], 26 µM in assay [3] and 10 µM against Dihydrofolate reductase [5]. In addition, the Selectivity ratio in assay [2] worked out at 1.4; in assay [4], 0.39.
As to `COc1ccc(OC)c(NCc2c(Br)sc3nc(N)nc(N)c23)c1`, the IC50 was over 100 µM against Dihydrofolate reductase [1], over 100 µM in assay [3] and 33 µM on Dihydrofolate reductase [5].
`COc1cc(N(C)Cc2c(Br)sc3nc(N)nc(N)c23)cc(OC)c1OC`: the values for the IC50 (at Dihydrofolate reductase [1]; in assay [3]; against Dihydrofolate reductase [5]) were 31 µM, 127 µM and 28 µM, respectively. Also, the Selectivity ratio in assay [2] came out at 0.88.
